Laboratory results taken from ChEMBL document CHEMBL5620374, “Synthesis and bioevaluation of novel stilbene-based derivatives as tubulin/HDAC dual-target inhibitors with potent antitumor activities in vitro and in vivo” (Eur J Med Chem, 2023).
Calls of active or inactive are those of the source. No cut-off for these calls is given here.

What was measured:
B16-F10 = test: Antiproliferative activity against mouse B16-F10 cells incubated for 72 hrs by MTT assay; assay type: functional, cell-based; details: B16-F10, 72 h
Histone deacetylase 7 = target: T1, Histone deacetylase 7 (Homo sapiens, UniProt Q8WUI4); test: Inhibition of HDAC7 derived from human HeLa cell extract using Ac-Leu-Gly-Lys (Ac)-AMC as substrate by fluorescence based assay; assay type: cell-free
T1 sequence (Q8WUI4 whole entry): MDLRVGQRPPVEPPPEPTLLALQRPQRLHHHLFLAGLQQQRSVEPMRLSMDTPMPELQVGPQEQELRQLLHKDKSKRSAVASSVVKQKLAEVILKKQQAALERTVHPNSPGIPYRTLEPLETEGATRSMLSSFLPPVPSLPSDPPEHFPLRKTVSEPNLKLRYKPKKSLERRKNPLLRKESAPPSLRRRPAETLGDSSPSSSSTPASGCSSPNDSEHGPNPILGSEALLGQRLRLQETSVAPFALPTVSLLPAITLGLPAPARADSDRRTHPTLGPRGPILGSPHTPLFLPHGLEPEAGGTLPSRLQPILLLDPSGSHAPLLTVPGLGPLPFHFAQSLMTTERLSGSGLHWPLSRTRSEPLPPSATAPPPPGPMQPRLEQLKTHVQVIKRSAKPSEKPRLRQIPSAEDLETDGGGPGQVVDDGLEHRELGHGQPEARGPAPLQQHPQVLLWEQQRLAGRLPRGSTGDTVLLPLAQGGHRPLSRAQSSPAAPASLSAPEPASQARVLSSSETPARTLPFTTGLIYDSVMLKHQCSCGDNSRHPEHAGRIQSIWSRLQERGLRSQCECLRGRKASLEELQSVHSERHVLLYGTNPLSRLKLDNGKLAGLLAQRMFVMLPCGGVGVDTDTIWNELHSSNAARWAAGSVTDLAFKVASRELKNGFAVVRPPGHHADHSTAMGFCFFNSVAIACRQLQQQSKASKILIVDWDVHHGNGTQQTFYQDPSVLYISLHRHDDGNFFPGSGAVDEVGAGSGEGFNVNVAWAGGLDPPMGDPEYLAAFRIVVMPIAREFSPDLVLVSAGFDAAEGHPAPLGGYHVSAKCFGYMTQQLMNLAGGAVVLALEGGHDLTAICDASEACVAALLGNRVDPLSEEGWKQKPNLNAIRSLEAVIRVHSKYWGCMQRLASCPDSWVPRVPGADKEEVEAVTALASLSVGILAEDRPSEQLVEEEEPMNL

Tubulin = test: Inhibition of tubulin (unknown origin) polymerization measured for 60 mins by absorbance based assay; assay type: protein-complex assay, Homo sapiens
Tubulin (Homo sapiens) = Tubulin (Homo sapiens) (UniProt P68371+Q9H4B7+P0DPH7+P68366+Q13509+Q71U36+P04350+Q3ZCM7+P07437+P68363+Q9BQE3+Q6PEY2+Q13885+Q9BVA1+Q9BUF5); test: Inhibition of tubulin polymerization in human K562 cells assessed as disruption of microtubule network at 2 to 8 nM by immunofluorescence based analysis; assay type: cell-based; details: dose 2-8 nM
K562 [1] = test: Induction of cell cycle arrest at G1 phase in human K562 cells at 4 nM incubated for 48 hrs by PI staining based flow cytometry (reference value: 62.08 +/- 0.40 %); assay type: functional
K562 [2] = test: Effect on cell cycle in human K562 cells assessed as decrease in Cdc2 level incubated for 24 hrs by Western blot analysis; assay type: functional, cell-based; details: dose 2-8 nM
K562 [3] = test: Induction of apoptosis in human K562 cells assessed as chromatin aggregation at 2 to 8 nM incubated for 48 hrs by Hoechst 33342 staining based analysis; assay type: functional, cell-based; details: dose 2-8 nM
K562 [4] = test: Induction of apoptosis in human K562 cells assessed as necrotic cells at 2 nM incubated for 48 hrs by Annexin V/PI staining based flow cytometry (reference value: 2.56 +/- 0.22 %); assay type: functional
K562 [5] = test: Induction of apoptosis in human K562 cells assessed as early apoptotic cells at 4 nM incubated for 48 hrs by Annexin V/PI staining based flow cytometry (reference value: 1.55 +/- 0.21 %); assay type: functional
K562 [6] = test: Induction of apoptosis in human K562 cells assessed as necrotic cells at 4 nM incubated for 48 hrs by Annexin V/PI staining based flow cytometry (reference value: 2.56 +/- 0.22 %); assay type: functional
K562 [7] = test: Induction of apoptosis in human K562 cells assessed as early apoptotic cells at 8 nM incubated for 48 hrs by Annexin V/PI staining based flow cytometry (reference value: 1.55 +/- 0.21 %); assay type: functional
K562 [8] = test: Induction of apoptosis in human K562 cells assessed as late apoptotic cells at 8 nM incubated for 48 hrs by Annexin V/PI staining based flow cytometry (reference value: 3.37 +/- 0.21 %); assay type: functional
K562 [9] = test: Induction of apoptosis in human K562 cells assessed as necrotic cells at 8 nM incubated for 48 hrs by Annexin V/PI staining based flow cytometry (reference value: 2.56 +/- 0.22 %); assay type: functional
K562 [10] = test: Induction of apoptosis in human K562 cells assessed as increase in Bax level incubated for 24 hrs by Western blot analysis; assay type: functional, cell-based; details: dose 2-8 nM
K562 [11] = test: Induction of apoptosis in human K562 cells assessed as decrease in Bcl-2 level incubated for 24 hrs by Western blot analysis; assay type: functional, cell-based; details: dose 2-8 nM
K562 [12] = test: Inhibition of mitochondrial membrane potential in human K562 cells assessed as red fluorescence intensity at 2 nM incubated for 48 hrs by JC-1 staining based flow cytometry (reference value: 93.36 +/- 0.21 %); assay type: functional
K562 [13] = test: Inhibition of mitochondrial membrane potential in human K562 cells assessed as red fluorescence intensity at 4 nM incubated for 48 hrs by JC-1 staining based flow cytometry (reference value: 93.36 +/- 0.21 %); assay type: functional
K562 [14] = test: Inhibition of mitochondrial membrane potential in human K562 cells assessed as green fluorescence intensity at 8 nM incubated for 48 hrs by JC-1 staining based flow cytometry (reference value: 6.63 +/- 0.27 %); assay type: functional
MDA-MB-231 [15] = test: Inhibition of cell migration in human MDA-MB-231 cells incubated for 48 hrs by crystal violet staining based transwell assay; assay type: functional; details: dose 2-8 nM
MDA-MB-231 [16] = test: Inhibition of cell […] in human MDA-MB-231 cells incubated for 24 hrs by wound healing assay; assay type: functional, cell-based; details: dose 2-8 nM
HUVEC = test: Inhibition of tube formation in HUVEC cells incubated for 24 hrs by inverted microscopy; assay type: functional, cell-based; details: Homo sapiens
H22 [17] = test: Antitumor activity against mouse H22 cells allografted in ICR mouse assessed as decrease in tumor volume at 10 to 20 mg/kg, iv qd for 17 days consecutively; assay type: functional, organism-based; details: dose 10-20 mg/kg, time 17.0 day
H22 [18] = test: Antitumor activity against mouse H22 cells allografted in ICR mouse assessed as decrease in tumor weight at 10 to 20 mg/kg, iv qd for 17 days consecutively; assay type: functional, organism-based; details: dose 10-20 mg/kg, time 17.0 day
H22 [19] = test: Antitumor activity against mouse H22 cells allografted in ICR mouse assessed as decrease in tumor microvessel density at 20 mg/kg, iv qd for 17 days consecutively by IHC analysis; assay type: functional, organism-based; details: time 17.0 day
MCF7 = test: cells; details: Homo sapiens, MCF7, 72 h
Description: Antiproliferative activity against human MCF7 cells incubated for 72 hrs by MTT assay

A2780 = test: cells; details: Homo sapiens, A2780, 72 h
Description: Antiproliferative activity against human A2780 cells incubated for 72 hrs by MTT assay

C=C(c1ccc(OC)c(OC(F)C(=O)NO)c1)c1cc(C)nc2ccccc12 (stereo unspecified)
IC50 (B16-F10): 5 nM
IC50 (Histone deacetylase 7): > 10000 nM
IC50 (Tubulin): 3840 nM
inhibition (Tubulin (Homo sapiens)): Active
Activity (K562 [1]): 49.35%
Activity (K562 [2]): Dose-Dependent Effect
Activity (K562 [3]): Active
Activity (K562 [4]): 0.36%
Activity (K562 [5]): 24.51%
Activity (K562 [6]): 0.17%
Activity (K562 [7]): 18.11%
Activity (K562 [8]): 25.59%
Activity (K562 [9]): 3.7%
Activity (K562 [10]): Dose-Dependent Effect
Activity (K562 [11]): Dose-Dependent Effect
Flu intensity (K562 [12]): 82.36%
Flu intensity (K562 [13]): 68.24%
Flu intensity (K562 [14]): 42.31%
inhibition (MDA-MB-231 [15]): Dose-Dependent Effect
inhibition (MDA-MB-231 [16]): Dose-Dependent Effect
IC50 (HUVEC): 192 nM
Activity (H22 [17]): Active
Activity (H22 [18]): Active
Activity (H22 [19]): Active
IC50 (MCF7): 36 nM
IC50 (A2780): 5 nM
